{"source": "patent US7846483B2", "about": "“Cosmetic composition for skin application suitable for relaxing expression wrinkles” (Labo Cosprophar AG, priority 2004, dated 2010)", "key": {"[1]": {"test_system": "endoplasmic reticulum vesicles", "assay": "Outflow of calcium ions from endoplasmic reticulum vesicles versus external magnesium ion concentration", "assay_type": "biochemical", "conditions": "with an increase in the concentration of Mg++ in the medium (FIG. 2)", "protocol": "In particular, the dependence of the flow at the outlet of the calcium ions on the external concentration of magnesium ions was evaluated. The results obtained are shown in the graph of FIG. 2."}, "[2]": {"test_system": "POMC gene", "assay": "Gene expression of the POMC gene in a culture of human keratinocytes", "assay_type": "cell-based", "conditions": "human keratinocytes incubated for 24 h"}, "[3]": {"test_system": "CGRP", "assay": "CGRP synthesis in a culture of neurons", "assay_type": "cell-based", "conditions": "neurons incubated for 6 hours"}, "[4]": {"test_system": "nerve-muscle co-culture model", "assay": "Contraction frequency in a nerve-muscle co-culture model with acetyl Dipeptide-1 cetyl ester", "assay_type": "cell-based", "conditions": "for contraction inhibition: 0.9%", "protocol": "The decontracting efficacy was evaluated, of dipeptide N-acetyl tyrosyl-arginyl (Dipeptide) hexadecyl ester, dissolved in a hydro-glycol excipients.\n• 1. […] Evaluation of the contraction frequency in a nerve-muscle co-culture model in incubation with acetyl Dipeptide-1 cetyl ester at 0.9% for 5 minutes and 2 h."}, "[5]": {"test_system": "nerve-muscle co-culture model", "assay": "In vitro efficacy test on pentapeptide: contraction frequency in a nerve-muscle co-culture model", "assay_type": "cell-based", "conditions": "0.3% by weight, contractions counted over 30 sec", "protocol": "In vitro efficacy test on pentapeptide\nThe frequency of the contractions was determined in a nerve-muscle co-culture model to evaluate the decontracting capacity of pentapeptide gly-pro-arg-pro -ala-NH2 SEQ ID NO 1, used at a concentration of 0.3% by weight."}}, "note": "Where no end group is shown, it is not given here.", "data": [{"substance": "Magnesium ions", "values": [{"measurement": "quantity of Calcium ions released from the endoplasmic reticulum vesicles", "setting": "[1]", "result": "decreases"}]}, {"substance": "N-acetyl tyrosyl-arginyl (Dipeptide) hexadecyl ester [acetyl Dipeptide-1 cetyl ester]", "values": [{"measurement": "over-expression of the POMC gene with respect to the reference", "setting": "[2]; 0.9%", "result": "> +29%"}, {"measurement": "over-expression of the POMC gene with respect to the reference", "setting": "[2]; 1.9%", "result": "> +63%"}, {"measurement": "reduction in the CGRP synthesis with respect to the reference", "setting": "[3]; 2.8%", "result": "−0", "unit": "%"}, {"measurement": "reduction in the CGRP synthesis with respect to the reference", "setting": "[3]; 4.7%", "result": "−50", "unit": "%"}, {"measurement": "contraction inhibition", "setting": "[4]; after 5 minutes of incubation, 1 fiber out of 3", "result": "higher than 20%"}, {"measurement": "contraction inhibition", "setting": "[4]; after 2 hours of incubation, all 3 fibers", "result": 100, "unit": "%"}]}, {"substance": "gly-pro-arg-pro-ala-NH2 (GPRPA-NH2) [pentapeptide]", "values": [{"measurement": "average reduction in the contraction frequency", "setting": "[5]; after 1 minute of incubation", "result": 69.75, "unit": "%"}, {"measurement": "average reduction in the contraction frequency", "setting": "[5]; after 2 hours of incubation", "result": 60.75, "unit": "%"}]}, {"substance": "α-bungarotoxin [reference compound]", "values": [{"measurement": "DECREASE IN THE MUSCULAR FIBER CONTRACTION, Positive reference (α-bungarotoxin)", "setting": "[4]", "result": "Blockage"}]}]}
